The subject of one assay is mammalian cells. As to the kind of experiment: Antiproliferative activity, summary grouping on the basis of MTT assays. The class given is cell-based. Conditions: in words. As for the experimental part: Adherent cells were seeded at 67×10^3 cells/mL in a 96 well plate (Falcon, Mississauga, Ontario) the day prior to exposure to compound. Suspension cells were seeded at 27×10^4 cells/mL in a 96 well plate the day of exposure to compound. Mononucleated, T-cell depleted normal bone marrow cells were seeded at 67×10^4 cells/mL in a 96 well plate the day of exposure to compound. Compounds and solvent control were added to cells and assayed in triplicate or sextuplet. Following 48 h of incubation at 37° C. with 5% CO2, 40 μL of a 5 mg/mL solution of 3-[4,5-dimethylthiazol-2-yl]-2,5-diphenyltetrazolium bromide (MTT) substrate (Sigma) in Dulbecco's phosphate-buffered saline (D-PBS) was added. After 4 h of incubation at 37° C. with 5% CO2, the resulting violet formazan precipitate was solubilized by the addition of 80 μL of a 0.01 M HCI, 10% sodium dodecyl sulfate (SDS; Sigma) solution overnight at 37° C. with 5% CO2. The plates were then analyzed using the BioRad Benchmark Microplate Reader (BioRad Laboratories, Hercules, Calif.) at 570 nm to determine the optical density of the samples. MTT data was analyzed using Prism 3.0 (GraphPad Software, Inc., San Diego, Calif.) by the Chou-Talalay method. MTT graphs shown are a representative experiment.
Initially, the efficacy of ten synthetic OSCs was explored for their antiproliferative activity against mammalian cells. […]
Background: Tetrazolium dyes change colour on reduction, which living cells bring about.

In another assay the test system is KK leukemic cell line. Put plainly: TUNEL, flow cytometry. The class given is cell-based, human. Conditions: 48 h. As for the experimental part:
(§1) Adherent cell lines were plated at 35×10^4 cells/60 cm^2 dish the day before exposure to compound. Suspension cells were seeded at 25×10^4 cells/mL in a 6 well dish (Falcon) the day of exposure to compound. Mononucleated, T-cell depleted normal bone marrow cells were seeded at 50×10^4 cells/mL in a 6 well dish the day of exposure to compound. Cells were exposed to solvent control or approximate MTT50 and MTT30 concentrations of the compound. After 48 h of exposure to the compound, cells were harvested and fixed with a final concentration of 4% formaldehyde. Fixed cells were stored at −20° C. in 70% ethanol for no more than 5 days. Approximately 10^5 cells were pelleted and labeled with 0.02 mM Biotin-dUTP and 12.5 U TdT enzyme in a 1× reaction buffer (200 mM potassium cacodylate, 25 mM Tris-HCl, 25 μg/mL bovine serum albumin, pH 6.6), 2.5 mM CoCl2 and 0.01 mM dTTP (Roche Molecular Biochemicals, Laval, QC, Canada) for 45 min at 37° C. Samples were washed and incubated in 200 μL of 1:1000 fluorescein isothiocyanate (FITC)-conjugated avidin (Sigma) in 4×SSC, 5% skim milk powder and 0.05% Tween-20 (Sigma). Following 1 h of mixing at room temperature, the samples were washed and resuspended in 500 μL of D-PBS containing 2.5 μg/mL DNase-free RNase (Boehringer Mannheim) and 10 μg/mL PI. Following a 30 min incubation at room temperature, cells were analyzed using a XL-MCL flow cytometer (Coulter Corporation, Miami, Fla.) and a FACScalibar cytometer (Becton Dickinson, San Jose, Calif.). Profiles shown are representative of one experiment.
as §1, with “? s” for “Cells”, “appr ? nate” for “approximate”, “of” for “of the”, “Pl.” for “PI.”
A general note: In flow cytometry, cells or beads pass a laser one at a time.

In the case of `CS(C)(=O)=O` [Compound A, dimethyl sulfone], the “Antiproliferative activity (grouping in Summary of Results and Notes to the data sets)” value in the assay on mammalian cells is listed as “No anti-proliferative properties”.

Consider `CSSCC(=O)c1ccccc1` [Compound P, phenacyl methyl disulphide], for which the “% TUNEL +ve” value is on record as 47% in the assay on KK leukemic cell line (dose 50 uM) and 78% in the assay on KK leukemic cell line (dose 100 uM).

Consider `CCC(=O)OCSSc1ccccc1` [Compound Q, 1-phenyl-1,2-dithiapropyl propionate], for which the “% TUNEL +ve” value in the assay on KK leukemic cell line (dose 25 uM) is on record as 43%; in the assay on KK leukemic cell line (dose 50 uM), 61%.

As to `CSSCCS(C)(=O)=O` [F, 2,3,6-trithiaheptane 6,6,-dioxide], in the assay with mammalian cells, the “Antiproliferative activity (grouping in Summary of Results and Notes to the data sets)” value is reported as “Anti-proliferative Activity”.

(Values after US20030220524A1, “Sulfur containing compounds” (priority 2000, published 2003).)
